Where a name gives a salt, the structure may show the parent alone.
Test system: Conditioned Avoidance Responding (Rat)
Experiment: Block of Conditioned Avoidance Responding (Rat) test (CAR)
Assay type: in vivo, Male Fischer 344 rats
Conditions: for % escape loss: group mean % failures to escape; for % Inhibition CAR: mean % change in CAR vs vehicle day, negative = blockade
From the text: The antipsychotic activity of the compounds of the invention may be determined by the Block of Conditioned Avoidance Responding (Rat) test (CAR), the references being Cook, L. and E. Weidley in Ann. […] P. Reynolds Trends Pharmacol. Sci. 1992, 13, 116). […] Block of Conditioned Avoidance Responding (Rat) Apparatus: Rat operant chambers, housed within sound attenuated booths, both from […] Instruments Ltd., were used in this test. The test chamber (8" H×903/8" W×9" D) is constructed of aluminum and plexiglass with floor grid bars of stainless-steel (1/8" O.D.) spaced 9/16" apart. A stainless-steel operation level 11/2" wide projects 3/4" into the chamber and is positioned 2-2/8" above the grid floor. The shock stimulus is delivered via the grid floor by a Coulbourn Instruments solid state module. The parameters of the test and the collection of data are controlled automatically. Training: Male, Fischer 344 rats obtained from Charles River (Kingston, N.Y.) weighing more than 200 g, are individually housed with chow and water provided ad libitum. The rats are trained for two weeks to approach criterion levels in the avoidance test (90% avoidance rate). One-hour training sessions are run at about the same time each day for four or five days a week. The training session consists of 120 tdals, with the conditioned stimuli presented every 30 sec. A trial begins with presentation of the conditioned stimuli (a light and a tone). If the rat responds by depressing the operant lever during the 15-second presentation of the conditioned stimuli, the trial is terminated .and the animal is credited with a CAR. Failure to respond during the conditioned stimuli causes the presentation of the unconditioned stimulus (UCS), a 0.7 mA shock which is accompanied by a light and tone for […]. If the rat depressed the lever within the ten-second period, the shock and trial are terminated and an escape response recorded. If the rat fails to depress the lever during the UCS (shock), the trial is terminated after ten seconds of shock and the absence of a response is scored as a failure to escape. […] presses have no effect. If a rat performs at the 90% CAR level for two weeks, it is then run twice a week on the test schedule (see below) until baseline performance stabilized. Before any drug is administered, two weeks of CAR at a rate of 90% or better is required. Determination of ED50 Values Trained rats are run in a one-hour session on two consecutive days at the same time and in the same test chamber each day. The sessions consist of 60 trials, one every minute. The conditioned stimuli are presented for 15 sec (maximum) and the unconditioned stimuli five sec (maximum). On Day 1, a vehicle solution is administered to the rats at a time preceding the trial run corresponding to the pretreatment time for the test compound. The route of administration and the volume of vehicle are also matched to that of the test compound. […] The percent change in CAR on the drug treatment day compared to vehicle pretreatment day is the key measure. The percent change (% change) in CAR is determined using the following formula: % change CAR=((Day 2% CAR/Day 1% CAR)×100)-100 A negative number indicates a blockade of CAR, whereas a positive number would indicate increased CAR. The test results are reported as the mean % change for the group of rats. A reading of -20% is generally taken to represent a minimum value for a compound to be designated as active at a given dose in the CAR test. Failure to escape was calculated for each animal as follows: % Failures=# of Failures to Escape/# of trials The % failures, viz., loss of escape, is also reported as a group mean. Failures to escape are monitored closely and a session is terminated if ten failures occurred. ED50 values and 95% confidence limits are calculated using linear regression analysis.

Row | SMILES | % escape loss (5 mpk, PI) [%] | % Inhibition CAR (5 mpk, PI) [%] | % escape loss (15 mpk) [%] | % Inhibition CAR (15 mpk) [%]
1 | CC(C)Oc1ccccc1N1CCN(Cc2ccc(C(=O)N3CCCCCC3)s2)CC1 [CP #3, Hexahydro-1-[[5-[[1-[2-(1-methylethoxy)phenyl]-4-piperazinyl]methyl]2-thienyl]carbonyl]-1H-azepine Monohydrochloride Hemi Hydrate] | 3 | -8 |  | 
2 | CC(C)Oc1ccccc1N1CCN(Cc2ccc(C(=O)N3CCCCC3)s2)CC1.O=C(O)/C=C/C(=O)O [CP #1, 1-[[5-[[1-[2-(1-Methylethoxy)phenyl]-4-piperazinyl]methyl]-2-thienyl]carbonyl]piperidine Fumarate] | 18 | -56 |  | 
3 | CC(C)Oc1ccccc1N1CCN(Cc2cccc(CN3CCCCC3=O)n2)CC1 [CP #7, 1-[[6-[[1-[2-(Methylethoxy)phenyl]-4-piperazinyl]methyl]pyridinyl]methyl]-2-piperidinone Hydrochloride] |  |  | 0 | -85
4 | CC(C)Oc1ccccc1N1CCN(Cc2ccc(CN3CCCCC3=O)s2)CC1 [CP #5, 1-[[5-[[1-[2-(1-Methylethoxy)phenyl-4-piperazinyl]methyl]-2-thienyl]methyl]-2-piperidinone Hydrochloride] | 3 | -58 |  | 
5 | CC(C)Oc1ccccc1N1CCN(Cc2cc(C(=O)N3CCCCCC3)cs2)CC1 [CP #4, Hexahydro-1-[5-[[-1-[2-(1-Methylethoxy)phenyl-4-piperazinyl]methyl]-3-thienyl]carbonyl]-1-H-azepine Hydrochloride Hydrate] | 3 | -41 |  | 
6 | O=C1CCCCN1Cc1ccc(CN2CCN(c3cccc4ccoc34)CC2)s1 [CP #6, 1-[[5-[[1-(7-Benzofuranyl)-4-piperazinyl]methyl]-2-thienyl]methyl]-2-piperidinone1.5 Fumarate Hydrate] | 5 | -63 |  | 
7 | CC(C)Oc1ccccc1N1CCN(Cc2cc(C(=O)N3CCCCC3)cs2)CC1.Cl [CP #2, 1-[[5-[[1-[2-(1-Methylethoxy)phenyl]-4-piperazinyl]methyl]-3-thienyl]carbonyl]piperidine Monohydrochloride] | 34 | -72 |  | 

From patent US5332732A, “Thiophene and pyridine antipsychotic agents” (McNeilab, Inc., priority 1992, dated 1994)
